Earlier results in patent EP4302755B1, “PALBOCICLIB FORMULATION CONTAINING AN AMINO ACID” (Lotus Pharmaceutical Co., Ltd., priority 2022, dated 2024).
Read-outs that look alike come from different tables or passages of the source.

Columns and labels:
[1] = at low pH (2.1-4.5)

pKa (the pyridine nitrogen): ~4.1 | pKa (the secondary piperazine nitrogen): approximately 7.3 | solubility [1]: water soluble
Compound: CC(=O)c1c(C)c2cnc(Nc3ccc(N4CCNCC4)cn3)nc2n(C2CCCC2)c1=O [Palbociclib]
